Entries after “also recorded” stand apart in the source; their conditions may differ.
Tests used:
MM.1S-luc2 = assay: Combination of tolinapant and activated integrin β7 CAR-T in MM.1S-luc2 tumor-bearing NOG mice; type: in vivo, mouse
Experimental: Each mouse was identified with a number attached to the tail of the mouse. During the breeding period, the mice were housed in groups of 5 mice each and bred in a breeding room at a temperature of 24° C.
The evaluation period was set to up to day 14 or day 21. Grouping and pharmacological evaluation were performed using tumor luminescence values as determined by IVIS as an indicator. The luminescence value as determined by IVIS and body weight were measured twice a week.
After grouping, the individuals were identified by marking on the tail of each mouse.
For the measurement, IVIS (trademark) Lumina X5 was used.

CD19-negative NALM6 = assay: Cell death induction by tolinapant in presence of cytokine produced from CAR-T; type: cell-based; settings: cytokine produced from CAR-T present with tolinapant; antigen-negative as well as antigen-expressing tumor cells
Text: It has also been confirmed that when CAR-T used in this Example was reacted with a target CAR antigen-expressing tumor cell (e.g., CD19-positive NALM6) in vitro, cytokine (e.g., TNF-α) was produced. […] This non-contact apoptosis induction to tumor cells is expected to exert an antitumor effect on tumor cells in which antigen escape has occurred or tumor cells metastasized to a site to which modified immune cells cannot make access.

A375 = assay: Combination of tolinapant and NY-ESO-1 TCR-T in A375 subcutaneous tumor-bearing NOG mice; type: in vivo, mouse
Experimental: Each mouse was identified with a number attached to the tail of the mouse.
The evaluation period was set to 2 weeks, and grouping and pharmacological evaluation were performed based on the results of tumor diameter measurement using a caliper. The tumor diameter and body weight were measured twice a week.
Using trypsin-EDTA-PBS(−), the cultured cells were detached and collected and then centrifuged (4° C., 1200 rpm, 5 min). After removing the supernatant, D-PBS (−) was added and the cells were resuspended and washed by centrifugation in the same manner as above. This washing operation was further repeated twice. After a portion of the cell suspension was taken and the number of viable cells was counted using AOPI Staining Solution, a cell suspension at 1×10^7 cells/mL was prepared using D-PBS(−), After the preparation, the cell suspension was stored in ice until transplantation. […]
On the eighth day after the transplantation, the long diameter and the short diameter were measured and the tumor volume was calculated. […]
The tumor diameter was determined by measuring the short diameter and the long diameter using an electronic caliper (produced by Mitutoyo Corporation). After tumor cell transplantation, the tumor diameter was measured twice a week.
Based on the measurement results of the tumor diameter, the tumor volume (TV: tumor volume) was calculated using the following formula: […]

C[C@@H]1CN(CC(=O)N2CC(C)(C)c3nc(CO)c(Cc4ccc(F)cc4)cc32)[C@@H](CN2CCOC[C@H]2C)CN1 [Tolinapant, 1-[6-[(4-fluorophenyl)methyl]-5-(hydroxymethyl)-3,3-dimethyl-2H-pyrrolo[3,2-b]pyridin-1-yl]-2-[(2R,5R)-5-methyl-2-[[(3R)-3-methylmorpholin-4-yl]methyl]piperazin-1-yl]ethanone]
combination effect of tolinapant and aITGB7 CAR-T (tumor luminescence value) (MM.1S-luc2; tolinapant 16 mg/kg po every day + aITGB7 CAR-T 3×10^4 cells/body iv, evaluated for 21 days): A significant combination effect was observed; also recorded: tumor regression was clearly observed on day 11 and thereafter; also recorded: a significant synergistic effect was observed; also recorded: significant, highly reproducible results
effect of tolinapant administered alone on MM.1S (MM) (MM.1S-luc2; tolinapant alone): no effect
induction of cell death (e.g., apoptosis) (CD19-negative NALM6): cell death (e.g., apoptosis) is induced to antigen-negative tumor cells (e.g., CD19-negative NALM6) as well as antigen-expressing cells
tumor volume on day 15, combination versus either agent alone (A375; tolinapant 16 mg/kg po + NY-ESO-1 TCR-T 3×10^6 cells/body iv, day 15): a significant difference was observed
tumor regression with NY-ESO-1 TCR-T and tolinapant both administered (A375; tolinapant 16 mg/kg po + NY-ESO-1 TCR-T iv, compared with NY-ESO-1 TCR-T alone): a higher degree of tumor regression was confirmed; also recorded: synergistic effects based on the combined use were shown; also recorded: significant, highly reproducible results
